{
  "source": "patent US11993640B2",
  "about": "“Treating inflammatory lung disease” (United States Government as represented by the Department …, priority 2019, dated 2024)",
  "key": {"[1]": {"tested_on": "C57Bl/6J mice treated with bleomycin", "assay": "Bleomycin lung injury model, lung hydroxyproline assay", "format": "in vivo, mouse", "experimental": "Experimental animals. 8-week old C57Bl/6J male mice (The Jackson Laboratory, Bar Harbor, ME) were used in these experiments. Mice weighed about 26 grams at the start. Mice were randomly allocated to the experimental groups and housed in identical filter top cages in a ventilated rack. Mice were exposed to a 12-hour light/dark cycle and had free access to standard laboratory chow and water.\nBleomycin and GHRH-R antagonist treatment. Mice were treated with 0.8 units of bleomycin (Bleomycin for Injection USP, Hospira, Lake Forest, IL) intraperitoneally (IP) on days 1, 3, 7, 10, 14 and 21 (Collins S, Chan-Li Y, Oh M, Vigeland C, Limjunyawong N, Mitzner W, Powell J D, Horton M R (2016). JCI Insight 1(4):1-13). Mice (randomly assigned) were simultaneously treated subcutaneously (sc) with MIA-602 (5 μg/day) or its vehicle (100 μL/day). MIA-602 was dissolved in DMSO (ACS grade; Sigma-Aldrich) and diluted 1:500 in normal saline for daily sc injection on days 0-21.\nTissue preparations. Mice were killed by CO2 inhalation before any treatment, or on days 14 or 28 for micro-CT scans of lungs and harvesting of lung tissue (Vande Velde G, Poelmans J, De Langhe E, Hillen A, Vanoirbeek J, Himmelreich U, Lories R (2016). Dis Model Mech 9:91). […]\nHydroxyproline assay. […] Hydroxyproline was measured colorimetrically (560 nm) after hydrolysis using an assay kit (MAK008, Sigma-Aldrich, St. Louis, MO). […]"}, "[2]": {"tested_on": "mouse lung fibroblasts (Mlg 2908)", "assay": "Cellular respiration, Seahorse XF Cell Mito Stress Test", "format": "cell-based", "settings": "24 hours", "experimental": "Lung fibroblasts. Newborn mouse lung fibroblasts (Mlg 2908) were obtained from the American Type Culture Collection, Manassas, VA and cultured in Eagle's minimal essential medium. Cells were grown in 6-well plates before incubation with 1 or 5 μM MIA-602 or vehicle, RNA isolation, and oxygen consumption measurements.\nCellular respiration. The effects of MIA-602 on mouse lung fibroblast oxygen consumption was measured using the Agilent Seahorse XF Cell Mito Stress Test (Agilent Technologies, Santa Clara, CA) (Divakaruni A, Paradyse A, Ferrick D, Murphy A, Jastroch M (2014). Methods in Enzymology 547:309-354). Fibroblasts were incubated with vehicle, 1 or 5 μM MIA-602 for 24 hours before measurement of oxygen consumption. One day before assay 80,000 fibroblasts were seeded into Seahorse 24-well plates (n=6 wells per condition). Basal respiration was established and oligomycin, FCCP and rotenone plus antimycin A were added sequentially to measure ATP production, uncoupled respiration; and, non-mitochondrial oxygen consumption (Wangpaichitr, Wu C, Li Y, Nguyen D, Kandemir H, Shah S, Chen S, Feun L, Prince J, Kuo M, Savaraj N (2017). Oncotarget 8(30):49275-49292)."}},
  "note": "Non-standard residues stand in square brackets, D forms with d. Residues, ends and D or L forms follow the SMILES beside them. *: point of attachment. Phe(F5) = N[C@@H](Cc1c(F)c(F)c(F)c(F)c1F)C(=O)O; hArg = N=C(N)NCCCC[C@H](N)C(=O)O; 12Ado = NCCCCCCCCCCCC(=O)O; Nle = CCCC[C@H](N)C(=O)O; Orn = NCCC[C@H](N)C(=O)O; Abu = CC[C@H](N)C(=O)O; PhAc = O=C(Cc1ccccc1)*",
  "data": [
    {"smiles": "CCCC[C@H](NC(=O)[C@@H](NC(=O)[C@H](CC(=O)O)NC(=O)[C@H](CCC(N)=O)NC(=O)[C@H](CC(C)C)NC(=O)[C@H](CC(C)C)NC(=O)[C@H](CCCN)NC(=O)[C@H](Cc1c[nH]cn1)NC(=O)[C@H](C)NC(=O)[C@H](CO)NC(=O)[C@H](CC(C)C)NC(=O)[C@H](CCC(N)=O)NC(=O)[C@H](CC)NC(=O)[C@H](CC(C)C)NC(=O)[C@@H](NC(=O)[C@H](CCCN)NC(=O)[C@H](Cc1c[nH]cn1)NC(=O)[C@H](Cc1ccc(OC)cc1)NC(=O)[C@H](CCCCNC(=N)N)NC(=O)[C@H](C)NC(=O)[C@@H](NC(=O)[C@H](Cc1c(F)c(F)c(F)c(F)c1F)NC(=O)[C@@H](NC(=O)[C@H](C)NC(=O)[C@H](CC(=O)O)NC(=O)[C@@H](CCCNC(=N)N)NC(=O)[C@H](Cc1ccc(O)cc1)NC(=O)CCCCCCCCCCCNC(=O)Cc1ccccc1)[C@@H](C)CC)[C@@H](C)O)C(C)C)[C@@H](C)CC)C(=O)N[C@H](CCCNC(=N)N)C(=O)N[C@@H](CCCCNC(=N)N)C(N)=O", "note": "[MIA-602, PhAC-Ada, Tyr D-Arg, Asp, Ala, Ile, 5FPhe, Thr, Ala, Har, Tyr(Me), His, Orn, Val, Leu, Abu, Gin, Leu, Ser, Ala, His, Orn, Leu, Leu, Gin, Asp, Ile, Nle, D-Arg, Har NH2, reference compound] ({PhAc-12Ado}-Y[dR]DAI[Phe(F5)]TA[hArg]Y(Me)H[Orn]VL[Abu]QLSAH[Orn]LLQDI[Nle][dR][hArg]-NH2)", "values": [
      {"measurement": "Lung hydroxyproline (HP) content", "setting": "[1]; day 14, MIA-602 5 μg/day sc, bleomycin IP", "result": "did not increase significantly"},
      {"measurement": "Lung hydroxyproline (HP) content", "setting": "[1]; day 28, MIA-602 5 μg/day sc days 1-21, bleomycin IP, compared to naive", "result": "No significant increase in HP content"},
      {"measurement": "Spare respiratory capacity", "setting": "[2]; 5 μM", "result": "increased"},
      {"measurement": "Basal oxygen consumption / basal respiration", "setting": "[2]; 5 μM, compared to vehicle", "result": "increased basal oxygen consumption"},
      {"measurement": "Maximal, uncoupled respiration after FCCP", "setting": "[2]; 5 μM, compared to vehicle", "result": "increased"},
      {"measurement": "Non-mitochondrial respiration after antimycin A and rotenone", "setting": "[2]; 1 and 5 μM", "result": "appeared to increase non-mitochondrial respiration"}
    ]}
  ]
}
